# Measured values from patent US8846704B2, “Thiopyrimidine-based compounds and uses thereof” (YM Biosciences Austraila Pty Ltd, priority 2007, dated 2014).
# Tests used:
# Format in all cases: biochemical
# Flt 1(h) = target: T1, Flt 1(h) (Homo sapiens, UniProt P17948); experiment: Upstate KinaseProfiler enzyme assay, Flt 1; settings: 500 nM compound; read-out: Percent inhibition at 500 nM Flt 1(h)
# T1 construct: purchased Upstate Biotechnology (Dundee, UK), KinaseProfiler service
# Procedure, shortened: (§1)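 Contract enzyme profiling under a general kinase protocol. Each kinase was pre-diluted to a 10× working concentration in 20 mM MOPS pH 7.0 with 1 mM EDTA, 0.1% β-mercaptoethanol, 0.01% Brij-35, 5% glycerol and 1 mg/ml BSA before addition. Substrates were prepared as working stocks in de-ionised water.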
# KDR(h) = target: T2, KDR(h) (Homo sapiens, UniProt P35968); experiment: Upstate KinaseProfiler enzyme assay, KDR; settings: 500 nM compound; read-out: Percent inhibition at 500 nM KDR(h)
# T2 construct: purchased Upstate Biotechnology (Dundee, UK), KinaseProfiler service
# T2 sequence (P35968 20-1356): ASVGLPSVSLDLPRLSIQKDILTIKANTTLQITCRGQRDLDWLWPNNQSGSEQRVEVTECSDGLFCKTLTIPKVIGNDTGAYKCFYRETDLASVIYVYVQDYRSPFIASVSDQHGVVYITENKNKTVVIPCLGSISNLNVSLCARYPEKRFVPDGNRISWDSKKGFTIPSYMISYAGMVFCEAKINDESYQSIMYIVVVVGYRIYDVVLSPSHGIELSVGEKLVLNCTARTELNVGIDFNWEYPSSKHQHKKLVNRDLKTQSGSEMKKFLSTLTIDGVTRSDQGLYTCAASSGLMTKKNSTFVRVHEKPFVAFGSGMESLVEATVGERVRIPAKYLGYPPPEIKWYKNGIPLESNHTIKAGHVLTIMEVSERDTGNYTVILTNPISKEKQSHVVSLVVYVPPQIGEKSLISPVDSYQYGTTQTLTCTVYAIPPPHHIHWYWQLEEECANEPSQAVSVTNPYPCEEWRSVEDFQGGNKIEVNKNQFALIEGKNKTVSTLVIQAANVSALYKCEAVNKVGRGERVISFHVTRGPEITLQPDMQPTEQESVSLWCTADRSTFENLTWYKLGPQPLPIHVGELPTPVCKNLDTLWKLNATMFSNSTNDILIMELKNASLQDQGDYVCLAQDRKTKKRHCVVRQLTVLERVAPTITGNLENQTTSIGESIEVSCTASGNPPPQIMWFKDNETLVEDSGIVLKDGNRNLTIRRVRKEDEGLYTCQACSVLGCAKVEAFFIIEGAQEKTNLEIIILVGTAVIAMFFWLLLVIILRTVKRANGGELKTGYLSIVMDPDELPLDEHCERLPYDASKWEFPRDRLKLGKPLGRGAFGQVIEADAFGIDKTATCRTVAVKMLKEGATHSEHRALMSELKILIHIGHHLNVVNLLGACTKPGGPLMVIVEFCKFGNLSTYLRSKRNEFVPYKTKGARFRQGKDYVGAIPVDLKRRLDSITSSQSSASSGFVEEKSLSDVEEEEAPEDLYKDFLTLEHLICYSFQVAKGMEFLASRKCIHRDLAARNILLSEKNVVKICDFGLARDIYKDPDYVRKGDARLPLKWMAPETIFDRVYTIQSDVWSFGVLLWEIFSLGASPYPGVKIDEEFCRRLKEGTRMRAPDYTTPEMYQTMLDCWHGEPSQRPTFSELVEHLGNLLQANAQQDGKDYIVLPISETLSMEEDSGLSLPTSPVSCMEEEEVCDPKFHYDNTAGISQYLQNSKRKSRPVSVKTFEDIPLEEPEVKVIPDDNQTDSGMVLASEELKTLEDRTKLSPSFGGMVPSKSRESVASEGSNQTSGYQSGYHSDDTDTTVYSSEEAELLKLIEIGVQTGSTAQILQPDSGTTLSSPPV
# Procedure, shortened: as §1
# Flt 4(h) = target: T3, Flt 4(h) (Homo sapiens, UniProt P35916); experiment: Upstate KinaseProfiler enzyme assay, Flt 4; settings: 500 nM compound; read-out: Percent inhibition at 500 nM Flt 4(h)
# T3 construct: purchased Upstate Biotechnology (Dundee, UK), KinaseProfiler service
# Procedure, shortened: as §1
# Blk(m) = target: T4, Blk(m) (Mus musculus, UniProt P16277); experiment: Upstate KinaseProfiler enzyme assay, Blk; settings: 500 nM compound; read-out: Percent inhibition at 500 nM Blk(m)
# T4 construct: purchased Upstate Biotechnology (Dundee, UK), KinaseProfiler service
# T4 sequence (P16277 whole entry): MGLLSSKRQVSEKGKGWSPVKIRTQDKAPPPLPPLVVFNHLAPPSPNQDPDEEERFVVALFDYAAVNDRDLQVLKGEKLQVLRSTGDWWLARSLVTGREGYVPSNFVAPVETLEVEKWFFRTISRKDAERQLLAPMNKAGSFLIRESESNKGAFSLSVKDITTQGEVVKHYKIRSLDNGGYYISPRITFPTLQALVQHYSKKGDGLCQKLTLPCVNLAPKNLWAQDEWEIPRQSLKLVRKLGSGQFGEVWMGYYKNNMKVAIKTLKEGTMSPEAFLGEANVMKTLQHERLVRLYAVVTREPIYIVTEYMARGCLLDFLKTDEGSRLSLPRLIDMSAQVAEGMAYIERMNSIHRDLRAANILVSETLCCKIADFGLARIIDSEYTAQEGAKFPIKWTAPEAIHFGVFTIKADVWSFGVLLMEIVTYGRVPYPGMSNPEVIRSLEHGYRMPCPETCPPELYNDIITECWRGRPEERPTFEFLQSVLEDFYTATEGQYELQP
# Procedure, shortened: as §1
# Bmx(h) = target: T5, Bmx(h) (Homo sapiens, UniProt P51813); experiment: Upstate KinaseProfiler enzyme assay, Bmx; settings: 500 nM compound; read-out: Percent inhibition at 500 nM Bmx(h)
# T5 construct: purchased Upstate Biotechnology (Dundee, UK), KinaseProfiler service
# T5 sequence (P51813 1-675): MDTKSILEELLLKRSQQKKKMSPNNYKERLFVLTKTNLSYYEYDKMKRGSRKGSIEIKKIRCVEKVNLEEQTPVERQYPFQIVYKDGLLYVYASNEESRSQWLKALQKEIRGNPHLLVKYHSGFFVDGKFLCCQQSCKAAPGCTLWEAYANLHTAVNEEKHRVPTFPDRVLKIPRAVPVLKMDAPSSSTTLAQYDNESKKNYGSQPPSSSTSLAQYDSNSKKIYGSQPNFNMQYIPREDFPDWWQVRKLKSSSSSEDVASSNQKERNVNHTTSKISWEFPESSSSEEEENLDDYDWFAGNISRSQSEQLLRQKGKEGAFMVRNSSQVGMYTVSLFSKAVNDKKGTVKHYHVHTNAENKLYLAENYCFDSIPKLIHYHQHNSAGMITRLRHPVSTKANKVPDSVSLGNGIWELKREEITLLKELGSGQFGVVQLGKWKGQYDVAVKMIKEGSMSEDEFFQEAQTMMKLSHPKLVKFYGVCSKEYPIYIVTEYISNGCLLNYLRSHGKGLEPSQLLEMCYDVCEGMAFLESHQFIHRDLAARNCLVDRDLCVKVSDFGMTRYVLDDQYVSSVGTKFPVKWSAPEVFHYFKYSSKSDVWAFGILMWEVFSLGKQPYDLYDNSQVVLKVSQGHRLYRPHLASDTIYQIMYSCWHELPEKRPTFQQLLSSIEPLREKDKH
# Procedure, shortened: as §1
# human CSF1-R (FMS) = target: T6, human CSF1-R (FMS) (Homo sapiens, UniProt P07333); experiment: Alphascreen tyrosine kinase enzyme assay, CSF-1R (FMS) kinase domain; settings: read-out: FMS, FLT3, or HCK IC50_nM (FMS)
# T6 construct: from codon I553 to Q961; GST (N); made in house; host or cells: Sf9 insect cells (baculovirus)
# T6 sequence (P07333 553-961): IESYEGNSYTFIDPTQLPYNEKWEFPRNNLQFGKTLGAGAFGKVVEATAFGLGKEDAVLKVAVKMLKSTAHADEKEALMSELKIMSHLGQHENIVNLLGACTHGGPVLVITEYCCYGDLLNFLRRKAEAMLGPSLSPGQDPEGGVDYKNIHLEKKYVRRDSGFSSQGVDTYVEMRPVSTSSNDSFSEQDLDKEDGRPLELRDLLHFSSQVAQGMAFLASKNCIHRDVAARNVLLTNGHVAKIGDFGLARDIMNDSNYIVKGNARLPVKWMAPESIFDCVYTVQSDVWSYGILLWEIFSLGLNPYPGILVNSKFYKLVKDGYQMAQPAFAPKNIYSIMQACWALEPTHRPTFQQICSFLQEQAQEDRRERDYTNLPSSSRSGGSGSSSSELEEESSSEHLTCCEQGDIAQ
# Procedure: For screening purposes, compounds (in 100% DMSO) were warmed at 37 degrees for at least 20 minutes before use. A […] stock was initially made in assay buffer, where the final concentration of DMSO was 0.3%. The stocks were then diluted in 384 well Optiplates (Packard) where the final concentration of the compound was […].
# The kinase domain of human CSF1-R from codon I553 to Q961 was cloned into the pDest20 expression vector (Invitrogen). The CSF1-R plasmid was then transformed into competent DH10Bac cells (Gibco), and the recombinant baculovirus produced prepared for transfection into Sf9 insect cells.
# Baculovirus preparations from each of the constructs were infected into either one or five liters of Sf9 cells (Invitrogen) grown in SF-900 medium (Invitrogen) to a cell density of approximately 1-2×10^6 cells/ml. Cells were infected with virus at a MOI of 0.8-3.0. Cells were harvested and lysed. Tyrosine kinase domains were purified by affinity chromatography on a glutathione-agarose column (Scientifix Pty. Ltd. catalog #: GSH-200).
# Kinase assays were performed in 384 well Optiplates (Packard) using an Alphascreen Protein Tyrosine Kinase PY100 detection kit The compounds were pre-incubated with affinity purified PTK domain in the presence of phosphotyrosine assay buffer (10 mM HEPES, pH 7.5, 100 mM MgCl2, 25 mM NaCl, […] and 0.1% Tween 20) for 20 minutes. The compounds were then incubated with substrate in the presence of ATP. The substrate used was susbtrate-1 with the sequence biotin-EGPWLEEEEEAYGWMDF-NH2 [SEQ. ID. NO. 13] (final concentration […]). For HCK 80 μm ATP was used and incubated for 60 minutes. Alphascreen phosphotyrosine acceptor beads followed by streptavidin donor beads at a concentration of 1/100 in stop buffer were added to each well under subdued light and incubated for 2-3 hours., The Alphascreen plates were read on a Packard Fusion Alpha instrument.
# BTK(h) = target: T7, BTK(h) (Homo sapiens, UniProt Q06187); experiment: Upstate KinaseProfiler enzyme assay, BTK; settings: 500 nM compound; read-out: Percent inhibition at 500 nM BTK(h)
# T7 construct: purchased Upstate Biotechnology (Dundee, UK), KinaseProfiler service
# T7 sequence (Q06187 whole entry): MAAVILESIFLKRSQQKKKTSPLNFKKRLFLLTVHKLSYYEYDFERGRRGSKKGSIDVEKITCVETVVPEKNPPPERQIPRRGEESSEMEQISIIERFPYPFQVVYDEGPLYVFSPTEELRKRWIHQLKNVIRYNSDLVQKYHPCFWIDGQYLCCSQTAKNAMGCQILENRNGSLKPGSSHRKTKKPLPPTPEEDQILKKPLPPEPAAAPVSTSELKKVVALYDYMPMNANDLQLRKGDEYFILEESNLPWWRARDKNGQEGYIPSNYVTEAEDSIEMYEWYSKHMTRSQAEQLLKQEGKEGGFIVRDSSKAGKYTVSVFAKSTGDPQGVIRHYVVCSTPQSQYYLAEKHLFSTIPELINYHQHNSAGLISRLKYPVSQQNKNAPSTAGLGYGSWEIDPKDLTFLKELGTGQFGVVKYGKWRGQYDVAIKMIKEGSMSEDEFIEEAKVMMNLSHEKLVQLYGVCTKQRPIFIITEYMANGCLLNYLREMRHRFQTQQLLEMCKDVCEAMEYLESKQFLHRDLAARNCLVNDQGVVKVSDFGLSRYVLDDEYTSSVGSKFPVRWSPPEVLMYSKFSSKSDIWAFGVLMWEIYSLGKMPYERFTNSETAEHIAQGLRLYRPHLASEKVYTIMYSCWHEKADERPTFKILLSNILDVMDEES
# Procedure, shortened: as §1
# T1 sequence (P17948 27-1338): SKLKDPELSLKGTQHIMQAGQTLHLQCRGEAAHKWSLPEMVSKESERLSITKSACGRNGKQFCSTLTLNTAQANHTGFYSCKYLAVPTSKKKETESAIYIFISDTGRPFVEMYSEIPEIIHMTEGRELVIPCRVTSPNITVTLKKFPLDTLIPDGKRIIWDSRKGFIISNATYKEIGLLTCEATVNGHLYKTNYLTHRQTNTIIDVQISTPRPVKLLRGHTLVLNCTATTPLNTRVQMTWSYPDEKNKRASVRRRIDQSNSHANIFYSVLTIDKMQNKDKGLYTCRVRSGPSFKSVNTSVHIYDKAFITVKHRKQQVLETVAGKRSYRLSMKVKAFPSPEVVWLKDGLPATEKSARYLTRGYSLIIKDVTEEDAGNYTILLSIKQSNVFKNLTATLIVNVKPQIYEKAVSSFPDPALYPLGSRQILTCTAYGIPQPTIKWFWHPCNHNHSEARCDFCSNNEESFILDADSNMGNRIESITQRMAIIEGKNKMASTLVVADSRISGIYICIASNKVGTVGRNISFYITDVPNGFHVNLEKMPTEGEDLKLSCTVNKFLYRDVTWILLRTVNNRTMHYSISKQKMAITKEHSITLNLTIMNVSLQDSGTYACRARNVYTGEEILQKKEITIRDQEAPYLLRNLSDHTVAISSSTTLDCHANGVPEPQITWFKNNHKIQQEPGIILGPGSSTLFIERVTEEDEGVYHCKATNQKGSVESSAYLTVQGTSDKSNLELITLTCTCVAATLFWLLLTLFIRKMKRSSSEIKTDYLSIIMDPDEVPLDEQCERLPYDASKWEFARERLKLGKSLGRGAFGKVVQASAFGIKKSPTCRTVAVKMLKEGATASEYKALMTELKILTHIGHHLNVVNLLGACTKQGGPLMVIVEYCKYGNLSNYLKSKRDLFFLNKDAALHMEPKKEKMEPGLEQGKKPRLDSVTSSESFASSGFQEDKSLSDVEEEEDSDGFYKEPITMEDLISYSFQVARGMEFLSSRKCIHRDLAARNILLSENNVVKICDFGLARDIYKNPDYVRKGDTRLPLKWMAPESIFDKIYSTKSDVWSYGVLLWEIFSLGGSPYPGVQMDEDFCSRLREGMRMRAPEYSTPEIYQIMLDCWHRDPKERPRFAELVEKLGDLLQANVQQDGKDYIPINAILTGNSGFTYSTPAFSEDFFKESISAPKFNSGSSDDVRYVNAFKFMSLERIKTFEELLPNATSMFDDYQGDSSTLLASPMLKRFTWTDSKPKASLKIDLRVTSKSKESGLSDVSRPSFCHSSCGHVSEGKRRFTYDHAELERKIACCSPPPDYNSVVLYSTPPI
SMILES,inhibition at 0.5 µM (Flt 1(h)),inhibition at 0.5 µM (KDR(h)),inhibition at 0.5 µM (Flt 4(h)),inhibition at 0.5 µM (Blk(m)),inhibition at 0.5 µM (Bmx(h)),IC50 (human CSF1-R (FMS)),inhibition at 0.5 µM (BTK(h))
"C=CC(=O)Nc1ccc(Sc2ccnc(Nc3ccc(C(=O)OC)cc3)n2)cc1 [Compound 357, methyl 4-(4-(4-acrylamidophenylthio)pyrimidin-2-ylao)benzoate]",76%,95%,99%,48%,48%,,
"COc1ccc(Nc2nccc(Sc3ccc(NC(=O)CC#N)cc3)n2)cc1OC [Compound 101, 2-cyano-N-(4-(2-(3,4-dimethoxyphenylao)pyrimidin-4-ylthio)phenyl)acetamide]",,,,,,< 100 nM,
"C=CC(=O)Nc1ccc(Sc2nc(Nc3ccc(CNS(C)(=O)=O)cc3)ncc2C)cc1 [Compound 294, N-(4-(5-methyl-2-(4-(methylsulfonamidomethyl)phenylao)pyrimidin-4-ylthio)phenyl)acrylamide]",94%,93%,100%,37%,92%,,77%
"C=CC(=O)Nc1ccc(Sc2nc(Nc3ccc(N4CCOCC4)cc3)ncc2-c2ccccc2)cc1 [Compound 307, N-(4-(2-(4-morpholinophenylao)-5-phenylpyrimidin-4-ylthio)phenyl)acrylamide]",19%,72%,93%,0%,29%,,
"C=CC(=O)Nc1cc(C)c(Sc2nc(Nc3ccc(N4CCOCC4)cc3)ncc2C)c(C)c1 [Compound 164, N-(3,5-dimethyl-4-(5-methyl-2-(4-morpholinophenylao)pyrimidin-4-ylthio)phenyl)acrylamide]",44%,83%,97%,62%,87%,,
"Cc1cnc(Nc2ccc(N3CCOCC3)cc2)nc1Sc1ccc(N)cc1 [Compound 126, 4-(4-aophenylthio)-5-methyl-N-(4-morpholinophenyl)pyrimidin-2-ae]",93%,95%,99%,43%,78%,,
"C=CC(=O)Nc1ccc(Sc2nc(Nc3ccc(N4CCOCC4)cc3)ncc2C)cc1 [Compound 124, N-(4-(5-methyl-2-(4-morpholinophenylao)pyrimidin-4-ylthio)phenyl)acrylamide]",100%,100%,100%,100%,100%,< 500 nM,100%
"C=CC(=O)Nc1ccc(Sc2ccnc(Nc3ccc(OC)cc3)n2)cc1 [Compound 74, N-(4-(2-(4-methoxyphenylao)pyrimidin-4-ylthio)phenyl)acrylamide]",,100%,,100%,100%,,100%
"C=CC(=O)Nc1ccc(Sc2ccnc(Nc3ccc(Cl)cc3)n2)cc1 [Compound 353, N-(4-(2-(4-chlorophenylao)pyrimidin-4-ylthio)phenyl)acrylamide]",,100%,,100%,100%,,100%
"CC(=O)Nc1ccc(Sc2nc(Nc3ccc(N4CCOCC4)cc3)ncc2C)cc1 [Compound 135, N-(4-(5-methyl-2-(4-morpholinophenylao)pyrimidin-4-ylthio)phenyl)acetamide]",96%,95%,99%,9%,58%,,
"C=CC(=O)Nc1cccc(Sc2ccnc(Nc3ccc(OC)cc3)n2)c1 [Compound 120, N-(3-(2-(4-methoxyphenylao)pyrimidin-4-ylthio)phenyl)acrylamide]",,100%,,100%,100%,,100%
"C=CC(=O)Nc1ccc(Sc2ccnc(Nc3cccc(S(N)(=O)=O)c3)n2)cc1 [Compound 364, N-(4-(2-(3-sulfamoylphenylao)pyrimidin-4-ylthio)phenyl)acrylamide]",97%,96%,99%,81%,73%,,
"C=CC(=O)Nc1ccc(Sc2nc(Nc3ccc(N4CCC(C(=O)OCC)CC4)cc3)ncc2C)cc1 [Compound 292, ethyl 1-(4-(4-(4-acrylamidophenylthio)-5-methylpyrimidin-2-ylao)phenyl)piperidine-4-carboxylate]",67%,96%,100%,10%,59%,,3%
C=CC(=O)Nc1ccc(Sc2ccnc(Nc3ccc(OC)c(O)c3)n2)cc1 [Compound 97],,100%,,100%,100%,,100%
